Test results: ChEMBL document CHEMBL1250519, “Design, synthesis, and biological evaluation of halogenated N-(2-(4-oxo-1-phenyl-1,3,8-triazaspiro[4.5]decan-8-yl)ethyl)benzamides: discovery of an isoform-selective small molecule phospholipase D2 inhibitor” (J Med Chem, 2010)
pIC50: −log10 of the molar value. The source made the active and inactive calls. No cut-off for these calls is given here.

Columns and labels:
Phospholipase D2 = Phospholipase D2 (Homo sapiens, UniProt O14939)
Description: Inhibition of human GST-tagged PLD2A in human HEK293 cells

Phospholipase D1 = biological target: T1, Phospholipase D1 (Homo sapiens, UniProt Q13393)
T1 sequence (Q13393 whole entry): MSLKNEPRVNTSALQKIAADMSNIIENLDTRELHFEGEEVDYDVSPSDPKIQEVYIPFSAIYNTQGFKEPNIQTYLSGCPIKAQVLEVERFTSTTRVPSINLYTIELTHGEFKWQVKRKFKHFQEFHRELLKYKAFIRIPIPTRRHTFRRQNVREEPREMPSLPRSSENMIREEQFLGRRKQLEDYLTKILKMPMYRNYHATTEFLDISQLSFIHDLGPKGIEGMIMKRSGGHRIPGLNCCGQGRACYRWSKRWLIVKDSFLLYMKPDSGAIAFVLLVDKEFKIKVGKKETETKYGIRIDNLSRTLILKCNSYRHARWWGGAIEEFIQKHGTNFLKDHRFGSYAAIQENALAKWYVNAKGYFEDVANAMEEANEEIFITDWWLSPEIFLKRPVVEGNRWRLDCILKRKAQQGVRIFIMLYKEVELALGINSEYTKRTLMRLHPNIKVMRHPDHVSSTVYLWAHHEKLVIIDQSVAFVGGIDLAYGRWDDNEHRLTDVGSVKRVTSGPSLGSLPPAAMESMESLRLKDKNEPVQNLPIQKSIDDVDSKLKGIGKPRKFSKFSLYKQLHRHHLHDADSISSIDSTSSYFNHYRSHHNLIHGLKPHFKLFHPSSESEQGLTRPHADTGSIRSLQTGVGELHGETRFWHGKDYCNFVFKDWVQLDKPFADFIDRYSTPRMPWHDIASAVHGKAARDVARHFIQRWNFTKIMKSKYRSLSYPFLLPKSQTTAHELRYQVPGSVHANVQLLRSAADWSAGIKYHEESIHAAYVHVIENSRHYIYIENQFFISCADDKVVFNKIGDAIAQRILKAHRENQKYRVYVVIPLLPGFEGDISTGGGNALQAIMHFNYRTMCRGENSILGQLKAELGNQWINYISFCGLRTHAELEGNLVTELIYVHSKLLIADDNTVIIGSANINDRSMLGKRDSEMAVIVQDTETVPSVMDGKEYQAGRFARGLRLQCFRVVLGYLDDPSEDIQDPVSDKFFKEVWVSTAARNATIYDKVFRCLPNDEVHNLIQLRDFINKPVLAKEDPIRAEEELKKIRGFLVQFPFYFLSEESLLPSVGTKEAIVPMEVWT
Description: Inhibition of PLD1 in human calu1 cells

Homo sapiens = organism: Homo sapiens; assay: Selectivity ratio of IC50 for human PLD1 to IC50 for human GST-tagged PLD2A
[1] = biological target: T2, Phospholipase D1 (Homo sapiens) (UniProt Q13393); assay type: cell-based; conditions: MDA-MB-231, 10 uM
T2 sequence (whole entry): T1 sequence (Q13393 whole entry)

Sequence of Phospholipase D2 (O14939 whole entry): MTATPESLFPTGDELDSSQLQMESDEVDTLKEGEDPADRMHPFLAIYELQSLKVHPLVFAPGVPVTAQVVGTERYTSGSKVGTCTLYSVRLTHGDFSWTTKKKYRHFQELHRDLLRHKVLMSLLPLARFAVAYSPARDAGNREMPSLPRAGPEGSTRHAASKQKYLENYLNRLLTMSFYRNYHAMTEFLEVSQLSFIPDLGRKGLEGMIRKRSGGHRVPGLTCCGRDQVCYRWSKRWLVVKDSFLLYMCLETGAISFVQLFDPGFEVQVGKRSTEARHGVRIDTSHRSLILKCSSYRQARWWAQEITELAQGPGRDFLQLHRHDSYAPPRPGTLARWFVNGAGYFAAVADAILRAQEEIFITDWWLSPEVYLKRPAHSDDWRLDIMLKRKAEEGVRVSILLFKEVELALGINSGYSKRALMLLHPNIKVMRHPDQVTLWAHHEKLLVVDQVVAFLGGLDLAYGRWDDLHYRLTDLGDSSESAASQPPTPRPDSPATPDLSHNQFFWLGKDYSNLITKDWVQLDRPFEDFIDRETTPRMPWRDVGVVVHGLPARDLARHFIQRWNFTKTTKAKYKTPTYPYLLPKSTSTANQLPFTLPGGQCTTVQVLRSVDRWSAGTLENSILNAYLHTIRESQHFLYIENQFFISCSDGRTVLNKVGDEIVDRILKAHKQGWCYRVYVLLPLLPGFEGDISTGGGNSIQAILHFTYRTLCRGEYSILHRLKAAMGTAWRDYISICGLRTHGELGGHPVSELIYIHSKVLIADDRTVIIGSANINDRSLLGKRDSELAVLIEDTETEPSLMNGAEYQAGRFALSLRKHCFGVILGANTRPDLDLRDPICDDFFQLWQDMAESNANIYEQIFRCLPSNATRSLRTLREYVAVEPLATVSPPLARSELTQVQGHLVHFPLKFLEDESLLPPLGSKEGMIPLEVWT

Row | Structure (SMILES) | pIC50 (Phospholipase D2) | pIC50 (Phospholipase D1) | Selectivity ratio (Homo sapiens) | inhibition [1]
1 | O=C(NCCN1CCC2(CC1)C(=O)NCN2c1cccc(Cl)c1)c1ccc2ccccc2c1 | 6.54 | 5.92 | 4 | –
2 | O=C(NCCN1CCC2(CC1)C(=O)NCN2c1ccc(Cl)cc1)c1cnc2ccccc2c1 | 6.70 | 5.46 | 17 | –
3 | O=C(NCCN1CCC2(CC1)C(=O)NCN2c1ccc(Cl)cc1)c1ccc(F)cc1 | 5.25 | 5.25 | 1 | –
4 | O=C(NCCN1CCC2(CC1)C(=O)NCN2c1ccc(F)cc1)c1ccc2ccccc2c1 | 7.10 | 5.77 | 21 | –
5 | O=C(NCCN1CCC2(CC1)C(=O)NCN2c1cccc(F)c1)c1ccc(F)cc1 | 5.17 | – | – | –
6 | O=C(NCCN1CCC2(CC1)C(=O)NCN2c1cccc(Cl)c1)c1ccc(F)cc1 | 7.15 | 5.46 | 50 | –
7 | C[C@@H](CN1CCC(n2c(=O)[nH]c3cc(Br)ccc32)CC1)NC(=O)[C@H]1C[C@@H]1c1ccccc1 | – | – | – | Active
8 | O=C(NCCN1CCC2(CC1)C(=O)NCN2c1ccc(F)cc1)c1ccc(F)cc1 | 6.21 | 4.85 | 23 | –
9 | O=C(NCCN1CCC2(CC1)C(=O)NCN2c1ccc(Br)cc1)c1ccc(F)cc1 | 5.10 | 5.00 | 1 | –
10 | O=C(NCCN1CCC2(CC1)C(=O)NCN2c1ccc(F)c(F)c1)c1cc2cc(F)ccc2[nH]1 | 7.00 | 6.41 | 4 | –
11 | O=C(NCCN1CCC2(CC1)C(=O)NCN2c1ccc(Br)cc1)c1cc2cc(F)ccc2[nH]1 | 7.00 | 5.58 | 27 | –
12 | O=C(NCCN1CCC2(CC1)C(=O)NCN2c1ccc(F)c(F)c1)c1ccc(F)cc1 | 6.18 | 5.24 | 9 | –
13 | C[C@@H](CN1CCC2(CC1)C(=O)NCN2c1cccc(F)c1)NC(=O)c1ccc2ccccc2c1 | 7.22 | 8.00 | – | –
14 | O=C(NCCN1CCC2(CC1)C(=O)NCN2c1ccc(Cl)cc1)c1ccc2ccccc2c1 | 6.18 | 5.64 | 3.5 | –
15 | O=C(NCCN1CCC2(CC1)C(=O)NCN2c1ccc(Br)cc1)c1cnc2ccccc2c1 | 6.44 | 5.57 | 8 | –
16 | O=C(NCCN1CCC2(CC1)C(=O)NCN2c1cccc(Cl)c1)c1cc2cc(F)ccc2[nH]1 | 7.14 | 6.60 | 3.4 | –
17 | O=C(NCCN1CCC2(CC1)C(=O)NCN2c1cccc(Cl)c1)c1cnc2ccccc2c1 | 6.78 | 6.06 | 5 | –
18 | O=C(NCCN1CCC2(CC1)C(=O)NCN2c1cccc(F)c1)c1cc2cc(F)ccc2[nH]1 | 7.60 | 6.68 | 8 | –
19 | O=C(NCCN1CCC2(CC1)C(=O)NCN2c1cccc(F)c1)c1cnc2ccccc2c1 | 7.20 | 5.60 | 40 | –
20 | O=C(NCCN1CCC2(CC1)C(=O)NCN2c1ccc(F)cc1)c1cc2cc(F)ccc2[nH]1 | 7.52 | 6.54 | 9 | –
21 | O=C(NCCN1CCC2(CC1)C(=O)NCN2c1ccc(F)cc1)c1cnc2ccccc2c1 | 7.40 | 5.70 | 50 | –
22 | O=C(NCCN1CCC2(CC1)C(=O)NCN2c1ccc(Br)cc1)c1ccc2ccccc2c1 | 6.46 | 5.23 | 17 | –
23 | O=C(NCCN1CCC2(CC1)C(=O)NCN2c1ccc(Cl)cc1)c1cc2cc(F)ccc2[nH]1 | 7.30 | 6.47 | 7 | –
24 | O=C(NCCN1CCC2(CC1)C(=O)NCN2c1ccc(F)c(F)c1)c1cnc2ccccc2c1 | 7.15 | 5.69 | 30 | –
